The target in data set [1] is T1, human 5-HT2C receptor (Homo sapiens, UniProt P28335).
T1 construct: expressed in transfected cells; host or cells: HeLa (HeLa-5-HT2C cell line)
T1 sequence (P28335 33-458): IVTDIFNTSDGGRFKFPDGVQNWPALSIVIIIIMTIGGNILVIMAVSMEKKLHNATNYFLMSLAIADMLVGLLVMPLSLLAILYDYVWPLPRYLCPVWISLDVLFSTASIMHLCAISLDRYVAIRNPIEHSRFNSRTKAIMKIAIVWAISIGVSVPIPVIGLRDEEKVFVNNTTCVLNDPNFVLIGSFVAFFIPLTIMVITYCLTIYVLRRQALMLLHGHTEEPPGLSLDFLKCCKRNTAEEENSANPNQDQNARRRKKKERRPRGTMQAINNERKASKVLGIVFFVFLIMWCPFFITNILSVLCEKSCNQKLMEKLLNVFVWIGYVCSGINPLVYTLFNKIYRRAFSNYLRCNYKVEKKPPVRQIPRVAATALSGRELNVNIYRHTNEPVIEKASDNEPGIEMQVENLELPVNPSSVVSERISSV
Briefly: Ca2+ mobilization in HeLa h5-HT2C cells. The format is cell-based. Conditions: for EC50: Ca2+ mobilization, no unit in the table, nM, read-out: 5-HT2C EC50 (in parentheses) (converted); for Emax: HeLa, read-out: 5-HT2C % Emax; for Selectivity 5-HT2C/2A (functional, in parentheses): from EC50 values, Table 2.

Data set [2] deals with human 5-HT2B receptor (Homo sapiens, UniProt P41595). Briefly: Competition binding to the human 5-HT2B receptor ([3H]LSD, CHO-5-HT2B membranes).
Chain of human 5-HT2B receptor (P41595 whole entry): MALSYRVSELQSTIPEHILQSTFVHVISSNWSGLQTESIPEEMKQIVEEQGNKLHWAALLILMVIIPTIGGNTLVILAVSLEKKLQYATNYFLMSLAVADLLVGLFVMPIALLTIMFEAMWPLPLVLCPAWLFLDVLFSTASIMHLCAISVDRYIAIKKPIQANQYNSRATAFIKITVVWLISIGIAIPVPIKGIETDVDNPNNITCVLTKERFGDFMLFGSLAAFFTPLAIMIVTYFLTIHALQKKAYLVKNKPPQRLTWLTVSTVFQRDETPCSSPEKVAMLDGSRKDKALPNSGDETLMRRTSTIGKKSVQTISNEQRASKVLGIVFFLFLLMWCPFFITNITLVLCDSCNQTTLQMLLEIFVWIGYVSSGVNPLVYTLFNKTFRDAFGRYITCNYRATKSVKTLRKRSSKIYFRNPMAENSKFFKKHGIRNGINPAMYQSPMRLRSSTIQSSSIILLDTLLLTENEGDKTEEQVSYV
Data set [3] has as its target T1, human 5-HT2C receptor. As to the kind of experiment: Competition binding to the human 5-HT2C receptor ([3H]mesulergine, HeLa-5-HT2C membranes). Conditions: for Selectivity 5-HT2C/2A (binding, in parentheses): from Ki values, Table 1; for Ki: human receptor, [3H]mesulergine displacement, no unit in the table, nM, read-out: 5-HT2C Ki (in parentheses) (converted).
Data set [4] has as its target T2, human 5-HT2A receptor (Homo sapiens, UniProt P28223).
T2 construct: expressed in transfected cells; host or cells: CHO (CHO-5-HT2A cell line)
Briefly: Ca2+ mobilization in CHO h5-HT2A cells. Type of data set: cell-based. Conditions: for Selectivity 5-HT2A/2C (functional): from EC50 values, Table 2; for Emax: relative efficacy, % of response to 5-HT.

For data set [5], the target named is T2, human 5-HT2A receptor. Briefly: Competition binding to the human 5-HT2A receptor ([3H]ketanserin, CHO-5-HT2A membranes). The conditions noted are these: for Selectivity 5-HT2A/2C (binding): from Ki values, Table 1; for Ki: human receptor, [3H]ketanserin displacement, no unit in the table, nM, read-out: 5-HT2A Ki (in parentheses) (converted).
Where [6] appears, read: Ca2+ mobilization, no unit in the table, nM, read-out: 5-HT2A EC50 (in parentheses) (converted).

Values joined by “and” are separate entries in the source; they are usually repeats but may differ in a detail not shown here. Equal values may be shown once. Where a name gives a salt, the structure may show the parent alone. Read-outs that look alike come from different tables or passages of the source.

T2 sequence (P28223 whole entry): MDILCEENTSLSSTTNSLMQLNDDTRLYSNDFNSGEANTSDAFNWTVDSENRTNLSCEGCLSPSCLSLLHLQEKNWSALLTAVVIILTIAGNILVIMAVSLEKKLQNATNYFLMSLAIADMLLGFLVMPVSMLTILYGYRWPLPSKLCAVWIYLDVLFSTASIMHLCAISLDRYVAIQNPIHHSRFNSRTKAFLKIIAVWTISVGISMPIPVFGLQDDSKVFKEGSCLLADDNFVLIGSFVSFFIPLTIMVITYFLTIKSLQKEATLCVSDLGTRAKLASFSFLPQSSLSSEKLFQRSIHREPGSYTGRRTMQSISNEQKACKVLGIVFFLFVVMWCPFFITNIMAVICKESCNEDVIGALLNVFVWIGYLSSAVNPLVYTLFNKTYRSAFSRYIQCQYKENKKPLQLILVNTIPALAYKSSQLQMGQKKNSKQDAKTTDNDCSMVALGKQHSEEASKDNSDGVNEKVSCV

As usually defined, the melting point is the temperature, or range, at which the solid turns liquid. For `Cc1ccc(O)c(CNCCc2c[nH]c3ccccc23)c1` (as salt: fumarate) [Compound 23, N-(2-Hydroxy-5-methylbenzyl)-[2-(1H-indol-3-yl)ethyl]amine], the melting point was in the range of 183 to 185 °C.
Turning to `Oc1cccc(Br)c1CNCCc1c[nH]c2ccccc12` (as salt: hydrochloride) [Compound 33, N-(6-Bromo-2-hydroxybenzyl)-[2-(1H-indol-3-yl)ethyl]amine], the melting point was in the range of 195 to 196 °C.
`O=[N+]([O-])c1ccc(O)c(CNCCc2c[nH]c3ccccc23)c1` (as salt: hydrochloride) [Compound 30, N-(5-Nitro-2-hydroxybenzyl)-[2-(1H-indol-3-yl)ethyl]amine] displayed a melting point of 194 to 196 °C.
On the same count and under the same terms, for `COc1ccc(Br)cc1CNCCc1c[nH]c2ccccc12` (as salt: hydrochloride) [Compound 27, N-(5-Bromo-2-methoxybenzyl)-[2-(1H-indol-3-yl)ethyl]amine] the value was 192 to 193 °C; for `Oc1c(F)cccc1CNCCc1c[nH]c2ccccc12` (as salt: succinate) [Compound 22, N-(3-Fluoro-2-hydroxybenzyl)-[2-(1H-indol-3-yl)ethyl]amine], 151 to 152 °C; for `Oc1ccc(Br)cc1CNCCc1c[nH]c2ccccc12` (as salt: hydrochloride) [Compound 26, N-(5-Bromo-2-hydroxybenzyl)-[2-(1H-indol-3-yl)ethyl]amine], 188 to 189 °C.
Same read-out and setting: for `Oc1ccc(F)cc1CNCCc1c[nH]c2ccccc12` (as salt: hydrochloride) [Compound 24, N-(5-Fluoro-2-hydroxybenzyl)-[2-(1H-indol-3-yl)ethyl]amine] the value was 185 to 186 °C; for `COc1ccc(OC)c(CNCCc2c[nH]c3ccccc23)c1` (as salt: hydrochloride) [Compound 29, N-(2,5-Dimethoxybenzyl)-[2-(1H-indol-3-yl)ethyl]amine], 175 to 176 °C.
On the same count and under the same terms, for `Oc1c(Br)cccc1CNCCc1c[nH]c2ccccc12` (as salt: succinate) [Compound 21, N-(3-Bromo-2-hydroxybenzyl)-[2-(1H-indol-3-yl)ethyl]amine] the value was 141 to 142 °C.
For orientation: Emax means the maximal effect, on the per cent scale that the assay sets. What is called Ki is the equilibrium dissociation constant of an inhibitor or competing ligand from its target. Consider `Oc1cccc(CNCCc2c[nH]c3ccccc23)c1` [Compound 7, N-(3-Hydroxybenzyl)-[2-(1H-indol-3-yl)ethyl]amine], for which, in data set [1], the EC50 was 6.76 nM; the Emax was found to be 96.3 ± 4.02%; the “Selectivity 5-HT2C/2A (functional, in parentheses)” value was determined as 8.32. In data set [2], this compound had an inhibitory constant (Ki) of 0.0371 µM. Further, in data set [3], the “Selectivity 5-HT2C/2A (binding, in parentheses)” value stood at 2.8 and the Ki was 25.7 nM. Further, the EC50 in data set [4] (setting [6]) is 56.2 nM. In data set [4], the “Selectivity 5-HT2A/2C (functional)” value turned out to be 0.12 and the Emax came out at 52.8 ± 4.63%. Further, in data set [5], the “Selectivity 5-HT2A/2C (binding)” value came out at 0.36 and the Ki is 75.9 nM.
`COc1cccc(CNCCc2c[nH]c3ccccc23)c1O` [Compound 19, N-(2-Hydroxy-3-methoxybenzyl)-[2-(1H-indol-3-yl)ethyl]amine]: in data set [1], the EC50 is 93.3 nM; the Emax stood at 107 ± 6.91%; the “Selectivity 5-HT2C/2A (functional, in parentheses)” value was 0.52. The same compound showed a Ki in data set [2] of 0.0132 µM. Moreover, in data set [3], the “Selectivity 5-HT2C/2A (binding, in parentheses)” value is recorded as 1.72 and the Ki is 16.6 nM. Moreover, in data set [4] (setting [6]), the EC50 is 49 nM. For the same compound, in data set [4], the “Selectivity 5-HT2A/2C (functional)” value stood at 1.91 and the Emax is 26.2 ± 2.34%. Besides, in data set [5], the “Selectivity 5-HT2A/2C (binding)” value amounted to 0.58 and the Ki is 26.3 nM.
On to `Brc1ccc(CNCCc2c[nH]c3ccccc23)cc1` [Compound 17, N-(4-Bromobenzyl)-[2-(1H-indol-3-yl)ethyl]amine], for which, in data set [1], the EC50 was 6760 nM and the Emax stood at 110 ± 4.3%. Besides, affinity in data set [2] was put at a Ki of 0.263 µM. Also, in data set [3], the “Selectivity 5-HT2C/2A (binding, in parentheses)” value came to 0.92 and the Ki was 1070 nM. Also, the “functional activity at h5-HT2A receptor (in words)” value in data set [4] (Ca2+ mobilization) is “too low for quantification”. For the same compound, in data set [5], the “Selectivity 5-HT2A/2C (binding)” value was determined as 1.09 and the Ki was 1000 nM.
For the compound `Clc1ccc(CNCCc2c[nH]c3ccccc23)cc1` [Compound 16, N-(4-Chlorobenzyl)-[2-(1H-indol-3-yl)ethyl]amine], in data set [1], the EC50 is 50.1 nM; the Emax was found to be 98.3 ± 4.18%; the “Selectivity 5-HT2C/2A (functional, in parentheses)” value worked out at 1.17. This compound showed a Ki in data set [2] of 0.224 µM. For the same compound, in data set [3], the “Selectivity 5-HT2C/2A (binding, in parentheses)” value was found to be 0.73 and the Ki was 955 nM. Besides, the EC50 in data set [4] (setting [6]) is 58.9 nM. Also, in data set [4], the “Selectivity 5-HT2A/2C (functional)” value amounted to 0.85 and the Emax is 80 ± 4.54%. Besides, in data set [5], the “Selectivity 5-HT2A/2C (binding)” value worked out at 1.37 and the Ki is 708 nM.
With `COc1ccc2[nH]cc(CCNCc3cc(F)ccc3O)c2c1` [Compound 43, N-(5-Fluoro-2-hydroxybenzyl)-[2-(5-methoxy-1H-indol-3-yl)ethyl]amine], in data set [1], the EC50 was 3.63 nM; the Emax came to 106 ± 3.05%; the “Selectivity 5-HT2C/2A (functional, in parentheses)” value came to 0.38. In addition, the Ki in data set [2] was 0.00891 µM. In data set [3], the “Selectivity 5-HT2C/2A (binding, in parentheses)” value came out at 0.10 and the Ki was 39.8 nM. Also, in data set [4] (setting [6]), the EC50 is 1.4 nM and 1.38 nM. Further, in data set [4], the “Selectivity 5-HT2A/2C (functional)” value amounted to 2.63 and the Emax stood at 83.3 ± 2.26%. Moreover, in data set [5], the “Selectivity 5-HT2A/2C (binding)” value is 9.66 and the Ki was 3.98 nM.
For `COc1ccc2[nH]cc(CCNCc3ccccc3Br)c2c1` [Compound 40, N-(2-Bromobenzyl)-[2-(5-methoxy-1H-indol-3-yl)ethyl]amine], in data set [1], the EC50 is 27.5 nM; the Emax was 105 ± 4.32%; the “Selectivity 5-HT2C/2A (functional, in parentheses)” value was 1.07. This compound showed a Ki in data set [2] of 0.0288 µM. Also, in data set [3], the “Selectivity 5-HT2C/2A (binding, in parentheses)” value is recorded as 0.18 and the Ki is 70.8 nM. Besides, the EC50 in data set [4] (setting [6]) was 29.5 nM. For the same compound, in data set [4], the “Selectivity 5-HT2A/2C (functional)” value was found to be 0.93 and the Emax is 44.8 ± 0.99%. In data set [5], the “Selectivity 5-HT2A/2C (binding)” value is 5.66 and the Ki is 12.3 nM.
For the compound `COc1ccc(Br)cc1CNCCc1c[nH]c2ccccc12` [Compound 27, N-(5-Bromo-2-methoxybenzyl)-[2-(1H-indol-3-yl)ethyl]amine], in data set [1], the EC50 is 263 nM; the Emax is 111 ± 4.63%; the “Selectivity 5-HT2C/2A (functional, in parentheses)” value is recorded as 67.6. Further, the affinity in data set [2] corresponds to a Ki of 0.0912 µM. In data set [3], the “Selectivity 5-HT2C/2A (binding, in parentheses)” value was found to be 8.22 and the Ki is 135 nM. Besides, in data set [4] (Ca2+ mobilization, pEC50 ± SEM, read-out: 5-HT2A pEC50 (converted)), the EC50 is 17800 nM. Besides, the EC50 in data set [4] (setting [6]) is 17800 nM. In addition, in data set [4], the “Selectivity 5-HT2A/2C (functional)” value came to 0.015 and the Emax was 69 ± 3.51%. Further, in data set [5], the “Selectivity 5-HT2A/2C (binding)” value turned out to be 0.12 and the Ki was 1120 nM.
With `COc1ccc2[nH]cc(CCNCc3ccccc3Cl)c2c1` [Compound 39, N-(2-Chlorobenzyl)-[2-(5-methoxy-1H-indol-3-yl)ethyl]amine], in data set [1], the EC50 is 81.3 nM; the maximal effect (Emax) amounted to 106 ± 4.32%; the “Selectivity 5-HT2C/2A (functional, in parentheses)” value is reported as 0.15. In addition, the Ki in data set [2] was 0.0371 µM. In data set [3], the “Selectivity 5-HT2C/2A (binding, in parentheses)” value is reported as 0.18 and the Ki was 74.1 nM. The EC50 in data set [4] (setting [6]) was 12 nM. For the same compound, in data set [4], the “Selectivity 5-HT2A/2C (functional)” value is listed as 6.76 and the Emax was 47.7 ± 1.57%. Moreover, in data set [5], the “Selectivity 5-HT2A/2C (binding)” value stood at 5.51 and the Ki was 13.5 nM.

The values above are taken from PMC6328172, “5-HT2 receptor binding, functional activity and selectivity in N-benzyltryptamines” (PLoS ONE, 2019).
